Test results reported in patent EP1095657A2, “Compositions for the regulation of cytokine activity” (priority 1992, dated 1994).

How the values were obtained:
[1] = test system: experimental DTH reaction in mice; assay: In vivo bioassay of inhibition of experimental DTH reactivity (oxazolone ear swelling); design: species or system mice (BALB/c or CD1); key to effect on the experimental DTH reaction (monosaccharides): "N.E." indicates that no effect was observed at the tested dosage range of 0.000004-4 µg/gm mouse; settings: CD1 mice, s.c.; for DTH: at that dose, value in parentheses in the cell taken as positive control, not reported; for "R" value: inhibitory, 0 = no effect; for effect on the experimental DTH reaction (monosaccharides): dosage range of 0.000004-4 µg/gm mouse
Procedure: Groups of inbred BALB/c (Jackson Laboratories, Bar Harbor, ME) or of outbred CD1 (Weizmann Institute Animal Breeding Center, Rehovot, Israel) mice are sensitized on the shaved abdominal skin with 100 µl of 2% oxazolone (OX) in acetone/olive oil (4/1, v/v) applied topically. DTH sensitivity is elicited 5 days later as follows: mice are challenged with 20 µl of 0.5% OX (10 µl administered topically to each side of the ear) in acetone/olive oil. A constant area of the ear is measured immediately before challenge and 24 and 48 h later with a Mitutoyo engineer's micrometer. The individual measuring ear swelling is blinded to the identity of the groups of mice. The increment (△) of ear swelling is expressed as the mean in units of 10^-2 mm or 10^-4 inch (+SE) depending on the micrometer that is used. Percent inhibition is calculated as follows: %Inhibition= 1-((Treated-negative control)/(positive control-negative control)) [formula]
Mice are treated with LMWH as in Example 5.1, injected the day before primary sensitization to OX. On the fifth day after sensitization to OX, the mice are challenged to induce a DTH reaction, as described above.
The positive control is the DTH reaction elicited in immunized mice in the absence of treatment with LMWH. The negative control is the background swelling produced by the antigen in naive (non-immunized) mice.
BALB/c mice (at least 5 mice per group) were sensitized on the shaved abdomen with 3% 4-ethoxymethylene-2-phenyl oxazolone (OX; BDH Chemicals, GB) in acetone/olive oil applied topically. DTH sensitivity was elicited 5 days later as follows. Mice were challenged with 0.5% OX in acetone/olive oil. The ear was measured immediately before challenge and 24 h later with Mitutoyo engineer's micrometer (Japan). The individual measuring the swelling of the ear was blinded to the identity of the groups of mice. To interfere with DTH response, the low molecular weight immuno-regulatory fractions, diluted in PBS, were administrated subcutaneously into the back of the treated mice at the indicated time schedules and concentrations. Treated mice were inspected during and after (>2 months) the treatment and no major side-effects were observed clinically.
In particular, CD1 mice (available from the Weizmann Institute Animal Breeding Center, Rehovot, Israel), 4-12 mice per group, were treated as described in Section 5.2 or 6.8.

[2] = test system: secretion of active TNF-α by activated human CD4+ T cells; assay: Bioassay of TNF-α activity using human CD4+ T cells derived from PBLs (human PBL bioassay); settings: for Bioassay of TNF Activity, in words: conc range of 1 µg/ml - 0.01 pg/ml, inconsistent = not the same result in all three bioassays; for "R" value: zero assigned where no effect is observed

| SMILES | Inhmax [1] | DTH [1] | "R" value [1] | effect on the experimental DTH reaction (monosaccharides) [1] | effect on the experimental DTH reaction, in words (disaccharide markers) [1] | Bioassay of TNF Activity, in words [2] | "R" value [2] |
| --- | --- | --- | --- | --- | --- | --- | --- |
| O=S(=O)(O)N[C@H]1C(O)O[C@H](CO)[C@@H](O)[C@@H]1OS(=O)(=O)O (stereo partly drawn) [GlcN-2,3S, D-Glucosamine-2,3-disulfate] | 68% | 6.3 ± 1 (19.7 ± 1.2) 10^-2 mm | 5.67 x 10^4 % x (μg/gm)^-1 |  |  |  |  |
| O=S(=O)(O)N[C@H]1C(O)O[C@H](COS(=O)(=O)O)[C@@H](O)[C@@H]1O (stereo partly drawn) [GlcN-2,6S, D-Glucosamine-2,6-disulfate] | 61% | 7.7 ± 1 (19.7 ± 1.2) 10^-2 mm |  |  |  |  |  |
| O=S(=O)(O)N[C@H]1C(O)O[C@H](CO)[C@@H](O)[C@@H]1O (stereo partly drawn) [GlcN-2S, D-Glucosamine-2-N-sulfate] |  |  | 0 % x (μg/gm)^-1 | N.E. |  |  |  |
| N[C@H]1C(O)O[C@H](CO)[C@@H](O)[C@@H]1OS(=O)(=O)O (stereo partly drawn) [GlcN-3S, D-Glucosamine-3-sulfate] |  |  | 0 % x (μg/gm)^-1 | N.E. |  |  |  |
| N[C@H]1C(O)O[C@H](COS(=O)(=O)O)[C@@H](O)[C@@H]1O (stereo partly drawn) [GlcN-6S, D-Glucosamine-6-sulfate] |  |  | 0 % x (μg/gm)^-1 | N.E. |  |  |  |
| O=C(O)C1=C[C@H](O)[C@@H](O)[C@H](O[C@H]2[C@H](O)[C@@H](NS(=O)(=O)O)C(O)O[C@@H]2CO)O1 (some centres unmarked) [H-1145] |  |  | 0 % x (μg/gm)^-1 |  | neutral and N.E. |  |  |
| CC(=O)N[C@H]1C(O)O[C@H](COS(=O)(=O)O)[C@@H](O[C@@H]2OC(C(=O)O)=C[C@H](O)[C@H]2O)[C@@H]1O (some centres unmarked) [H-8642] |  |  | 0 % x (μg/gm)^-1 |  | N.E. | Inconsistent |  |
| CC(=O)N[C@H]1C(O)O[C@H](CO)[C@@H](O[C@@H]2OC(C(=O)O)=C[C@H](O)[C@H]2OS(=O)(=O)O)[C@@H]1O (some centres unmarked) [H-8767] |  |  | 0 % x (μg/gm)^-1 |  | N.E. | Inconsistent |  |
| N[C@H]1C(O)O[C@H](COS(=O)(=O)O)[C@@H](O[C@@H]2OC(C(=O)O)=C[C@H](O)[C@H]2OS(=O)(=O)O)[C@@H]1O (some centres unmarked) [H-8892] |  |  | 0 % x (μg/gm)^-1 |  | neutral and N.E. | No effect | 0 % x (pg/ml)^-1 |
| N[C@H]1C(O)O[C@H](COS(=O)(=O)O)[C@@H](O[C@@H]2OC(C(=O)O)=C[C@H](O)[C@H]2O)[C@@H]1O (some centres unmarked) [H-9017] |  |  | 0 % x (μg/gm)^-1 |  | neutral and N.E. | No effect | 0 % x (pg/ml)^-1 |
| N[C@H]1C(O)O[C@H](CO)[C@@H](O[C@@H]2OC(C(=O)O)=C[C@H](O)[C@H]2OS(=O)(=O)O)[C@@H]1O (some centres unmarked) [H-9142] |  |  | 0 % x (μg/gm)^-1 |  | neutral and N.E. | Inconsistent |  |
| CC(=O)N[C@H]1C(O)O[C@H](CO)[C@@H](O)[C@@H]1O (some centres unmarked) [NAc-GlcN, N-Acetylglucosamine] |  |  | 0 % x (μg/gm)^-1 | N.E. |  |  |  |
